Laboratory results: patent US9353188B2, “Modulators of Plexin B2 activity” (President and Fellows of Harvard College, priority 2011, dated 2016)
Where two headings read alike, the source gives them in different places. Residues, ends and D or L forms follow the SMILES beside them.

Experiments:
[1] = test system: LNCaP cells; assay: LNCaP cell proliferation in phenol red-free and steroid-free medium; assay type: cell-based, human; conditions: for LNCaP cell proliferation: steroid-free medium, DHT 10 nM, ANG 0.1 μg/ml, or a mixture of the two
Procedure: (A) HUVE and LNCaP cells were cultured at the density indicated, and incubated with 0.1 μg/ml ANG for 2 h. Nuclear ANG were detected by indirect immunofluorescence with 26-2F and Alex 488 labeled 2nd antibody. (B) LNCaP cells were culture in phenol red-free and charcoal/dextran-stripped (steroid-free) FBS for 2 day and stimulated with DHT (10 nM), ANG (0.1 μg/ml), or a mixture of the two for the time indicated. (C) Dose dependence. ANG was added to the cells and cultured for 4 days. Cell numbers were determined with a Coulter counter.
ANG plays a dual role in prostate cancer progression. It not only mediates tumor angiogenesis but also directly stimulates cancer cell proliferation.

[2] = target: ANG protein (Homo sapiens, UniProt P03950); assay: binding of Plexin B2 peptides to ANG by ELISA and equilibrium dialysis
[3] = test system: ANG receptor expressing LNCaP cells; assay: radio receptor assay, binding of 125I-ANG to LNCaP cells; design: species or system human; conditions: 4° C., Scatchard analysis
Procedure: (A) Subconfluent LNCaP cells were incubated with ^125I-ANG at 4° C. for 30 min and bound ANG was determined by a gamma counter. (B) Scatchard plot of the results produced in experiment described in (A).
The thermodynamics of ANG binding to LNCaP cells was determined by a standard radio receptor assay. ANG was labeled with iodine-125 and incubated with ANG receptor expressing LNCaP cells at 4° C.

[4] = test system: Plexin B2 transfectants of COS-7 cells; assay: AKT phosphorylation in Plexin B2 transfectants of COS-7 cells (Western); assay type: cell-based, monkey; conditions: not in vector control, ANG 2 h
Procedure: Vector (A-C) and Plexin B2 (D-F) transfected COS-7 cells were incubated with 1 μg/ml ANG for 2 h. ANG was detected by immunofluorescence (A and D). Nuclei were stained by DAPI (B and E). The merged images were shown in C and F. (G) Vector and Plexin B2 transfectants were incubated with ANG at the concentration indicated for 2 h. Cells were lysed, cell lysates (60 μg protein) were subjected for SDS-PAGE and Western analysis for phospho-AKT and total AKT with respective antibodies.
The phosphorylation status of AKT in the Plexin B2 transfectants of COS-7 cells was examined.

[5] = test system: Plexin B2 transfectants of COS-7 cells; assay: nuclear translocation of ANG in Plexin B2-transfected COS-7 cells; assay type: cell-based, monkey; conditions: neomycin 10 min, then 1 μg/ml ANG for 2 h
Procedure: The Plexin B2 transfectants were treated with neomycin at the concentration indicated for 10 min and then incubated with 1 μg/ml ANG for 2 h. ANG was detected by immunofluorescence (top panels). Nuclei were stained by DAPI (middle panels). The merged images were shown in bottom panels.
The effect of neomycin on Plexin B2 transfectants of COS-7 cells was examined. […] Therefore, transfection of human Plexin B2 cDNA converted COS-7 cells into ANG responsive cells. In term of nuclear translocation of ANG, which is essential for the biological activity of ANG, Plexin B2 transfectants of COS-7 cells act in a similar fashion as do LNCaP cells and sparsely cultured HUVE cells, the two known ANG responsive cell lines.

[6] = test system: ANG receptor expressing LNCaP cells; conditions: background statement, no data shown; cited from earlier work

Sequence of ANG protein (P03950 25-147): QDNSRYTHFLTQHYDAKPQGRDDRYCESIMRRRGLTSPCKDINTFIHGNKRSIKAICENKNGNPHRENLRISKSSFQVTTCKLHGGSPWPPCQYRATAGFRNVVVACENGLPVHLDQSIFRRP

Question: Which LNCaP cell proliferation [1] does the source give for C[C@]12CCC(=O)C[C@@H]1CC[C@@H]1[C@@H]2CC[C@]2(C)[C@@H](O)CC[C@@H]12 [DHT, Dihydrotestosterone, reference compound] here?
Answer: stimulated LNCaP cell proliferation

Question: For CC[C@H](C)[C@H](NC(=O)[C@H](CCC(=O)O)NC(=O)[C@@H](NC(=O)[C@H](CC(C)C)NC(=O)[C@@H](NC(=O)[C@H](CO)NC(=O)[C@H](CC(=O)O)NC(=O)[C@H](Cc1ccc(O)cc1)NC(=O)[C@H](CCC(=O)O)NC(=O)[C@H](CO)NC(=O)[C@H](CO)NC(=O)[C@@H](NC(=O)CN)[C@@H](C)O)[C@@H](C)CC)C(C)C)C(=O)N[C@@H](CC(N)=O)C(=O)N[C@@H](CCCCN)C(=O)N[C@@H](CCCNC(=N)N)C(=O)N[C@H](C(=O)N[C@@H](CCCCN)C(=O)O)C(C)C [SEQ ID NO: 1, GTSSEYDSILVEINKRVK] (H-GTSSEYDSILVEINKRVK-OH; N-terminus and C-terminus assumed), which “binding to ANG” value [2] is on record?
Answer: able to bind to ANG

Question: For “ANG: small, secreted protein Angiogenin, a potent inducer of angiogenesis; human ANG is SEQ ID NO: 5”, which Kd ([3]; read-out: apparent Kd, first ANG binding site) is on record?
Answer: 0.45 nM

Question: And the Kd ([3]; read-out: apparent Kd, second ANG binding site)?
Answer: 170 nM

Question: What about the “LNCaP cell proliferation, dose dependence” value ([1]; cultured for 4 days, cell numbers by Coulter counter) of the same molecule?
Answer: stimulated LNCaP cell proliferation in a dose-dependent manner

Question: And the LNCaP cell proliferation [1]?
Answer: stimulated LNCaP cell proliferation in the absence of androgen

Question: What about the AKT phosphorylation [4] of the same molecule?
Answer: induced AKT phosphorylation

Question: Which “binding to ANG” value [2] does the source give for “LDKVHAKMEANRNAC (listed as Homo sapiens) [SEQ ID NO: 2]” here?
Answer: able to bind to ANG

Question: With “RDGLRGTAVLQRGGLNL (listed as Homo sapiens) [SEQ ID NO: 3]” as the molecule, how does the “binding to ANG” value [2] read?
Answer: able to bind to ANG

Question: For neomycin, which “nuclear translocation of ANG” value [5] is on record?
Answer: inhibits nuclear translocation of ANG in the Plexin B2 transfectants of COS-7 cells in a dose-dependent manner

B1: RNase A: protein with 35% amino acid identity to ANG, used on Sepharose column to remove non-specific proteins (protein, UniProt P61823 27-150, looked up)
Ribonuclease pancreatic: KETAAAKFERQHMDSSTSAASSSNYCNQMMKSRNLTKDRCKPVNTFVHESLADVQAVCSQKNVACKNGQTNCYQSYSTMSITDCRETGSSKYPNCAYKTTQANKHIIVACEGNPYVPVHFDASV
Question: For B1, which “binding to the LNCaP cell surface” value [6] is on record?
Answer: does not bind to the LNCaP cell surface
